The values below come from US20030236399A1, “Method of improving the quality of taste of natural sweetner” (Shangdong Hua Xian Stevia Co., Ltd., priority 2002, published 2003).

The nature of series [1]: Dissolving under ambient temperature, before and after the process. The format is physicochemical. An excerpt:
Comparisons have been made between the natural sweetener before and after the process of the present invention and the results are illustrated as follow: […]

The conditions of series [2]: high temperature, high acidity and high alkalinity; cited from earlier work.
The conditions of series [3]: background statement; cited from earlier work.

For `C=C1C[C@@]23CC[C@H]4[C@@](C)(CCC[C@@]4(C)C(=O)O[C@@H]4O[C@H](CO)[C@@H](O)[C@H](O)[C@H]4O)[C@@H]2CC[C@]1(O[C@@H]1O[C@H](CO)[C@@H](O)[C@H](O)[C@H]1O[C@@H]1O[C@H](CO)[C@@H](O)[C@H](O)[C@H]1O)C3` [stevioside], the “Solubility under ambient temperature” value in series [1] (Sweetness equivalent to 5% sucrose solution) and in series [1] (Sweetness equivalent to 10% sucrose solution) was “insoluble under ambient” each time. For the same compound, the Stability of structure result in series [2] is reported as “stable in structure”. Moreover, the “Sweetness level relative to sucrose” value in series [3] is reported as 200-300 times higher than that of sucrose.
Turning to α-glycosyl stevioside, the “Solubility under ambient temperature” value in series [1] (Sweetness equivalent to 15% sucrose solution) is recorded as “taste, easy to dissolve under”.
